# Results reported in patent publication US8729047B2, “Compositions for inhibiting redox-sensitive GTPases” (Board of Regents, The University of Texas System, priority 2010, dated 2014).
# Read-outs that look alike come from different tables or passages of the source.
# What was measured:
# Ras [1] = biological target: T1, Ras (Homo sapiens, UniProt P01112); settings: determined previously (Lenzen et al.; Heo et al.); read-out: trueKD GDP; cited from earlier work
# Ras [2] = biological target: T1, Ras; test: Guanine nucleotide exchange of [3H]GDP-loaded GTPase with 6-TGDP (FIG. 13A); format: binding; settings: [3H]GDP-loaded GTPase 1 μM, 6-TGDP 0-2000 μM, 1 h, read-out: appKD for 6-TGDP
# Procedure: (§1) FIG. 13. Guanine nucleotide exchange of small GTPases with 6-TGDP. (A) To monitor 6-TGDP-mediated GTPase GDP dissociation, [^3H]GDP-loaded GTPase (1 μM) was incubated with 6-TGDP (0-2000 μM) for 1 h. (B) To monitor GTPase 6-TGDP dissociation by GDP (0-2000 μM) in the presence and absence of dithiothreitol (DTT), 6-TGDP-loaded GTPase (˜1 μM) was treated with .NO2 (˜3 μM) under anaerobic conditions and was incubated with various concentrations of [^3H]GDP (0-2000 μM) in the presence and absence of DTT (10 mM) for 1 h. For all assays, aliquots were withdrawn and spotted onto nitrocellulose filters. The filters were then washed three times with an assay buffer, and radioactivity was determined using a Beckman-Coulter scintillation counter. The resultant radioactivity (dpm) values associated with GTPase-bound [^3H]GDP were converted into the fraction of mol nucleotide per mol total GTPase. The data presented represent mean and standard error values from triplicate measurements. The apparent dissociation constants (appKD values) of GTPase 6-TGDP association ([^3H]GDP dissociation, A); and 6-TGDP dissociation ([3H]GDP association, B) were obtained by fitting the data to a simple dissociation and association, respectively. […]
# (§2) A kinetic assay method using radiolabeled GDP ([^3H]GDP) was established. The apparent dissociation constants (^appKD 6-TGDP) of Rho GTPases (including RhoA, Cdc42, and Rac1/2/3) and Ras with 6-TGDP were determined (FIG. 13). […]
# (§3) The true dissociation constant (^trueKD 6-TGDP) of Ras, RhoC, RhoA and Rac1 for 6-TGDP was then calculated to be ˜20.7 pM, 212 μM, 208 μM, and 158 μM [6-TGDP] by using a compensation equation, ^trueKD 6-TGDP=^appKD 6-TGDP/(1+[GDP]/^trueKD GDP) (95), in conjunction with the values given [(^appKD 6-TGDP of Ras, RhoC, RhoA, and Rac1=2300, 230, 224, and 245 μM (FIG. 13) and ^trueKD GDP=9 pM, 12 μM, 13 μM and 1.8 μM, respectively. The ^trueKD GDP of Ras, RhoA and Rac1 was determined previously (Lenzen et al. Biochemistry 37, 7420-7430 (1998); Heo et al. Biochemistry 44, 6573-6585 (2005)) and the ^trueKD GDP of RhoC was further determined. […]
# RhoA = biological target: T2, RhoA (Homo sapiens, UniProt P61586); test: as above; format: binding
# T2 construct: made in house; host or cells: E. coli
# T2 sequence (P61586 whole entry, species assumed): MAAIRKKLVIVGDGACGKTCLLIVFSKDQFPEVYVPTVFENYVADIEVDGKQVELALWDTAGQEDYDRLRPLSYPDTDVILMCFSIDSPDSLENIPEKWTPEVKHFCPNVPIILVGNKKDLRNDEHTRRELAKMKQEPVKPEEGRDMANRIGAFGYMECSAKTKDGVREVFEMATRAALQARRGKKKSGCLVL
# Procedure: as §1, §2, §3
# Rho GTPases = test: Binding of 6-TGDP compared with GDP (Example 2); settings: Example 2, FIG. 13 values
# Procedure: The true dissociation constant (^trueKD 6-TGDP) of Ras, RhoC, RhoA and Rac1 for 6-TGDP was then calculated to be ˜20.7 pM, 212 μM, 208 μM, and 158 μM [6-TGDP] by using a compensation equation, ^trueKD 6-TGDP=^appKD 6-TGDP/(1+[GDP]/^trueKD GDP) (95), in conjunction with the values given [(^appKD 6-TGDP of Ras, RhoC, RhoA, and Rac1=2300, 230, 224, and 245 μM (FIG. 13) and ^trueKD GDP=9 pM, 12 μM, 13 μM and 1.8 μM, respectively. The ^trueKD GDP of Ras, RhoA and Rac1 was determined previously (Lenzen et al. Biochemistry 37, 7420-7430 (1998); Heo et al. Biochemistry 44, 6573-6585 (2005)) and the ^trueKD GDP of RhoC was further determined. Example: ^trueKD 6-TGDP for Ras=2300 μM/(1+1 μM GDP/[…])=[…] [6-TGDP]].
# T1 sequence (P01112 whole entry): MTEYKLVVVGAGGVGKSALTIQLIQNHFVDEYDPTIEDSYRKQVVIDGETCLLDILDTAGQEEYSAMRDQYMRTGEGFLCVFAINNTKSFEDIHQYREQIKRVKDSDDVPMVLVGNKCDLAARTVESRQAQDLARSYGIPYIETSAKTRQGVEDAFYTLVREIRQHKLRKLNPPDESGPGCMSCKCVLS
Structure (SMILES),Kd (Ras [1]),Kd (Ras [2]),"Kd (RhoA; [3H]GDP-loaded GTPase 1 μM, 6-TGDP 0-2000 μM, 1 h, FIG. 13A, read-out: appKD for 6-TGDP)","Kd (RhoA; calculated by compensation equation from appKD 6-TGDP and trueKD GDP, read-out: trueKD 6-TGDP)",binding interaction with 6-TGDP weaker than with GDP (Rho GTPases)
Nc1nc2c(ncn2[C@@H]2O[C@H](COP(=O)(O)OP(=O)(O)O)[C@@H](O)[C@H]2O)c(=O)[nH]1 [GDP],9 pM,,,,
"Nc1nc2c(ncn2[C@@H]2O[C@H](COP(=O)(O)OP(=O)(O)O)[C@@H](O)[C@H]2O)c(=S)[nH]1 [6-TGDP, 6-thioguanosine diphosphate]",,2300 µM,224 µM,208 µM,~15 fold
